Earlier results on one molecule are cited in publication PMC9436819 (JACC: Basic to Translational Science, 2022).

The structures appear in SMILES notation.

In data set [1] the test system is patients with obstructive HCM. The arrangement: method as in PMID 32871100. The following applies: cited from earlier work.
Details of data set [2]: method as in PMID 30044681, PMID 31035291. The following applies: cited from earlier work.

Take `CC(C)n1c(=O)cc(N[C@@H](C)c2ccccc2)[nH]c1=O` [Mavacamten]: in data set [1], the “LV outflow tract pressure gradients” value is “reduced”. For the same molecule, the “Improving exercise capacity and health status” value in data set [1] (vs placebo) is on record as “superior to placebo”. The “Time required to reach a steady state” value in data set [2] is listed as 6 weeks.
